Our source for the IC50 values is patent publication US10364256B2 (GlaxoSmithKline Intellectual Property Development Limited, priority 2015, dated 2019).

In assay [1] the target is T1, full length Keap1 protein / full length NRF2 protein (Homo sapiens, UniProt Q14145).
T1 construct: full length NRF2 protein and full length Keap1 protein (Keap1 exists a dimer) are used; His
The experiment in a line: NRF2-Keap1 TR-FRET Low Protein Assay. It is filed as binding. Conditions: 1.25 nM Keap1 FlagHis and 2.5 nM biotin-NRF2 added. In a few lines:
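Flag-tagged full-length Keap1 was preincubated with compound (3-fold series) for 2.25 h at 37 °C in Tris pH 8.0/MgCl2/NaCl/BSA/DTT/CHAPS. Biotin-Avi-NRF2 (added at 2.5 nM) was then bound for 1.25 h at 4 °C. Eu-streptavidin/anti-Flag-APC TR-FRET (665/615 nm) was read after 1 h at RT, and pIC50 came from a four-parameter fit.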
A general note: In TR-FRET formats the signal depends on donor and acceptor labels being close together.

Assay [2] deals with T1, full length Keap1 protein / full length NRF2 protein. The experiment in a line: NRF2-Keap1 TR-FRET Assay. It is filed as binding. The conditions noted are these: 25 nM Keap1-FlagHis and 50 nM biotin-NRF2 added. In a few lines: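 Displacement of biotinylated full-length NRF2 from full-length Keap1 read by Eu/APC TR-FRET (665/615 nm) after 1 h detection at RT. Compound, 3-fold series, first incubated with Keap1 at 37 °C for 2.25 h, NRF2 then added at 4 °C for 1.25 h; pIC50 by four-parameter equation.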

T1 sequence (Q14145 whole entry): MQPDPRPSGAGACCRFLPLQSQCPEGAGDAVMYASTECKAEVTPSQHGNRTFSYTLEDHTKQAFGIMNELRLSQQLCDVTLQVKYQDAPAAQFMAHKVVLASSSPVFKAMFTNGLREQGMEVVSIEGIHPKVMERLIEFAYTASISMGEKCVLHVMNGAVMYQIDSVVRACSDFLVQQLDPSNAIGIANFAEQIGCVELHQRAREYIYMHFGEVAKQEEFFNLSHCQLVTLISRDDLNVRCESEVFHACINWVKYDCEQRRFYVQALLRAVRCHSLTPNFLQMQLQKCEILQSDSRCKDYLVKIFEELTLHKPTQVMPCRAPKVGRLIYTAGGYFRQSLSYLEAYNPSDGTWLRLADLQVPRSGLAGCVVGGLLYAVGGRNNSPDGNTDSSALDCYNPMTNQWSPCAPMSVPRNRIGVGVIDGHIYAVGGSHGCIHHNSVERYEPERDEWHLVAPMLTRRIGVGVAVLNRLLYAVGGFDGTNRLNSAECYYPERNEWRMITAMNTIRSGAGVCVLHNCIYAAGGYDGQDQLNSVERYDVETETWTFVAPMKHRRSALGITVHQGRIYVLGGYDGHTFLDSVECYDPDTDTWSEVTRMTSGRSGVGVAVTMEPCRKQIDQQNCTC

Consider “1-(3′-((2-chlorocyclohexyl)methoxy)-[1,1′-biphenyl]-3-yl)-5-((1,2-trans)-2-(1-methyl-1H-1,2,3-triazol-4-yl)cyclopropyl)-1H-pyrazole-4-carboxylic acid [Example 186]”, for which the half-maximal inhibitory concentration (IC50) (usually the concentration that gives 50% inhibition) lay within 0.01 to 0.1 µM in assay [1] and 0.1 to 1 µM in assay [2].
Take `Cn1cc([C@@H]2C[C@H]2c2c(C(=O)O)cnn2-c2cccc(-c3cccc(-n4ncc5c4C(C)(C)CC5)c3)n2)nn1` (racemic) [Example 251, 1-(6-(3-(6,6-Dimethyl-5,6-dihydrocyclopenta[c]pyrazol-1(4H)-yl)phenyl)pyridin-2-yl)-5-(trans-2-(1-methyl-1H-1,2,3-triazol-4-yl)cyclopropyl)-1H-pyrazole-4-carboxylic Acid]: the IC50 in assay [1] is less than 0.01 µM; in assay [2] it was 0.01 to 0.1 µM.
The like results for `Cn1cc([C@@H]2C[C@H]2c2c(C(=O)O)cnn2-c2cccc(-c3cccc(CN4Cc5ccccc5OC(C)(C)C4)c3)c2)nn1` (racemic) [Example 254, 1-(3′-((2,2-Dimethyl-2,3-dihydrobenzo[f][1,4]oxazepin-4(5H)-yl)methyl)-[1,1′-biphenyl]-3-yl)-5-(trans-2-(1-methyl-1H-1,2,3-triazol-4-yl)cyclopropyl)-1H-pyrazole-4-carboxylic Acid] were, in that order, 0.01 to 0.1 µM and 0.1 to 1 µM.
For the compound `Cn1cc([C@H]2C[C@@H]2c2c(C(=O)O)cnn2-c2cccc(-c3cccc(C(=O)N4CCCCC4)c3F)c2)nn1` (racemic) [Example 258, 1-(2′-Fluoro-3′-(piperidine-1-carbonyl)-[1,1′-biphenyl]-3-yl)-5-(trans-2-(1-methyl-1H-1,2,3-triazol-4-yl)cyclopropyl)-1H-pyrazole-4-carboxylic Acid], the half-inhibitory concentration (IC50) is less than 0.01 µM in assay [1] and 0.01 to 0.1 µM in assay [2].
In the case of `Cn1cc([C@H]2C[C@@H]2c2c(C(=O)O)cnn2-c2cccc(-c3cccc(C(=O)N4CCCC(C)(C)C4)c3F)c2)nn1` (racemic) [Example 259, 1-(2′-Fluoro-3′-(3,3-dimethylpiperidine-1-carbonyl)-[1,1′-biphenyl]-3-yl)-5-(trans-2-(1-methyl-1H-1,2,3-triazol-4-yl)cyclopropyl)-1H-pyrazole-4-carboxylic Acid], the half-maximal inhibitory concentration (IC50) in assay [1] is less than 0.01 µM; in assay [2] it was 0.01 to 0.1 µM.
The corresponding values for `Cn1cc([C@H]2C[C@@H]2c2c(C(=O)O)cnn2-c2cccc(-c3cccc(C(=O)N4CCCCCC4)c3F)c2)nn1` (racemic) [Example 260, 1-(2′-Fluoro-3′-(azepane-1-carbonyl)-[1,1′-biphenyl]-3-yl)-5-(trans-2-(1-methyl-1H-1,2,3-triazol-4-yl)cyclopropyl)-1H-pyrazole-4-carboxylic Acid] are less than 0.01 µM and 0.01 to 0.1 µM.
With `CC1CC(C)CN(C(=O)c2cccc(-c3cccc(-n4ncc(C(=O)O)c4[C@@H]4C[C@H]4c4cn(C)nn4)c3)c2F)C1` (mixture of isomers) [Example 263, 1-(3′-(3,5-Dimethylpiperidine-1-carbonyl)-2′-fluoro-[1,1′-biphenyl]-3-yl)-5-(2-(1-methyl-1H-1,2,3-triazol-4-yl)cyclopropyl)-1H-pyrazole-4-carboxylic Acid], the results for the IC50 in assay [1] and in assay [2] were less than 0.01 µM and 0.01 to 0.1 µM, respectively.
The like results for `COCC1CCCCN1C(=O)c1cccc(-c2cccc(-n3ncc(C(=O)O)c3C3C[C@H]3c3cn(C)nn3)c2)c1F` (mixture of isomers) [Example 264, 1-(3′-(2-(Methoxymethyl)piperidine-1-carbonyl)-2′-fluoro-[1,1′-biphenyl]-3-yl)-5-(trans-2-(1-methyl-1H-1,2,3-triazol-4-yl)cyclopropyl)-1H-pyrazole-4-carboxylic Acid] were, in that order, less than 0.01 µM and 0.01 to 0.1 µM.
The like results for `CC(C)CN(C)C(=O)c1cccc(-c2cccc(-n3ncc(C(=O)O)c3[C@@H]3C[C@H]3c3cn(C)nn3)c2)c1F` (racemic) [Example 266, 1-(2′-Fluoro-3′(isobutyl(methyl)carbamoyl)-[1,1′-biphenyl]-3-yl)-5-(trans-2-(1-methyl-1H-1,2,3-triazol-4-yl)cyclopropyl)-1H-pyrazole-4-carboxylic Acid] were, in that order, less than 0.01 µM and 0.01 to 0.1 µM.
The corresponding values for `CC(Oc1cccc(-c2cccc(-n3ncc(C(=O)O)c3[C@@H]3C[C@H]3c3cn(C)nn3)n2)c1)C1CCCCC1` (relative stereo) [Example 249, 1-(6-(3-(1-Cyclohexylethoxy)phenyl)pyridin-2-yl)-5-(trans-2-(1-methyl-1H-1,2,3-triazol-4-yl)cyclopropyl)-1H-pyrazole-4-carboxylic Acid] are less than 0.01 µM and 0.01 to 0.1 µM.
Regarding `CCC1Cc2ccccc2CN(Cc2cccc(-c3cccc(-n4ncc(C(=O)O)c4[C@@H]4C[C@H]4c4cn(C)nn4)c3)c2)C1` (relative stereo) [Example 252, 1-(3′-((4-Ethyl-4,5-dihydro-1H-benzo[c]azepin-2(3H)-yl)methyl)-[1,1′-biphenyl]-3-yl)-5-(trans-2-(1-methyl-1H-1,2,3-triazol-4-yl)cyclopropyl)-1H-pyrazole-4-carboxylic Acid], the concentration for half-maximal inhibition (IC50) in assay [1] was in the range of 0.01 to 0.1 µM; in assay [2], 0.1 to 1 µM.
The like results for `C[C@@H]1CCC[C@H](C)N1C(=O)c1cccc(-c2cccc(-n3ncc(C(=O)O)c3[C@H]3C[C@@H]3c3cn(C)nn3)c2)c1F` (single isomer, unassigned) [Example 261] were, in that order, less than 0.01 µM and 0.01 to 0.1 µM.
The like results for `C[C@@H]1CCC[C@H](C)N1C(=O)c1cccc(-c2cccc(-n3ncc(C(=O)O)c3[C@@H]3C[C@H]3c3cn(C)nn3)c2)c1F` (single isomer, unassigned) [Example 262] were, in that order, less than 0.01 µM and 0.01 to 0.1 µM.
With `CCCC1CCCCN1C(=O)c1cccc(-c2cccc(-n3ncc(C(=O)O)c3C3CC3)c2)c1F` (stereo in doubt) [Example 54d, 5-Cyclopropyl-1-{3-[2-fluoro-3-((2R)-2-propylpiperidine-1-carbonyl)phenyl]phenyl}-1H-pyrazole-4-carboxylic Acid], the IC50 in assay [1] fell in the range of 0.01 to 0.1 µM; in assay [2], 1 to 10 µM.
The like results for `O=C(O)c1cnn(-c2cccc(-c3cccc(C(=O)N(CC4CC4)CC4CC4)c3F)c2)c1C1CC1` [Example 8, 1-(3-{3-[Bis(cyclopropylmethyl)carbamoyl]-2-fluorophenyl}phenyl)-5-cyclopropyl-1H-pyrazole-4-carboxylic Acid] were, in that order, 0.01 to 0.1 µM and 0.1 to 1 µM.
The like results for `CC(C)CC1CCCCN1C(=O)c1cccc(-c2cccc(-n3ncc(C(=O)O)c3C3CC3)c2)c1F` (stereo not shown) [Example 28, 5-Cyclopropyl-1-(3-{2-fluoro-3-[2-(2-methylpropyl)piperidine-1-carbonyl]phenyl}phenyl)-1H-pyrazole-4-carboxylic Acid] were, in that order, 0.01 to 0.1 µM and 0.1 to 1 µM.
Regarding `CC1CCCN(C(=O)c2cccc(-c3cccc(-n4ncc(C(=O)O)c4C4CC4)c3)c2F)CC1` (stereo not shown) [Example 29, 5-Cyclopropyl-1-{3-[2-fluoro-3-(4-methylazepane-1-carbonyl)phenyl]phenyl}-1H-pyrazole-4-carboxylic Acid], the results for the IC50 in assay [1] and in assay [2] were 0.01 to 0.1 µM and 0.1 to 1 µM, respectively.
Turning to `CC1CCC(C)N(C(=O)c2cccc(-c3cccc(-n4ncc(C(=O)O)c4C4CC4)c3)c2F)C1` (stereo not shown) [Example 30, 5-Cyclopropyl-1-{3-[3-(2,5-dimethylpiperidine-1-carbonyl)-2-fluorophenyl]phenyl}-1H-pyrazole-4-carboxylic Acid], the results for the IC50 in assay [1] and in assay [2] were 0.1 to 1 µM and 1 to 10 µM, respectively.
As to `O=C(O)c1cnn(-c2cccc(-c3cccc(C(=O)N4CCCC5CCCCC54)c3F)c2)c1C1CC1` (stereo not shown) [Example 31, 5-Cyclopropyl-1-{3-[3-(decahydroquinoline-1-carbonyl)-2-fluorophenyl]phenyl}-1H-pyrazole-4-carboxylic Acid], the IC50 was 0.01 to 0.1 µM in assay [1] and 1 to 10 µM in assay [2].
The like results for `O=C(O)c1cnn(-c2cccc(-c3cccc(C(=O)N4CCCCC4C4CCCC4)c3F)c2)c1C1CC1` (stereo not shown) [Example 33, 1-{3-[3-(2-Cyclopentylpiperidine-1-carbonyl)-2-fluorophenyl]phenyl}-5-cyclopropyl-1H-pyrazole-4-carboxylic Acid] were, in that order, 0.01 to 0.1 µM and 0.1 to 1 µM.
As for `O=C(O)c1cnn(-c2cccc(-c3cccc(C(=O)N4C5CCCC4CCC5)c3F)c2)c1C1CC1` [Example 34, 1-[3-(3-{9-azabicyclo[3.3.1]nonane-9-carbonyl}-2-fluorophenyl)phenyl]-5-cyclopropyl-1H-pyrazole-4-carboxylic Acid], the IC50 was 0.01 to 0.1 µM in assay [1] and 0.1 to 1 µM in assay [2].
Take `O=C(O)c1cnn(-c2cccc(-c3cccc(C(=O)N4CCCC5(CCCC5)C4)c3F)c2)c1C1CC1` [Example 35, 1-[3-(3-{7-Azaspiro[4.5]decane-7-carbonyl}-2-fluorophenyl)phenyl]-5-cyclopropyl-1H-pyrazole-4-carboxylic Acid]: the concentration for half-maximal inhibition (IC50) in assay [1] was in the range of 0.01 to 0.1 µM; in assay [2], 0.1 to 1 µM.
The like results for `O=C(O)c1cnn(-c2cccc(-c3cccc(C(=O)N4CCCCC4CCC(F)(F)F)c3F)c2)c1C1CC1` (stereo not shown) [Example 38, 5-Cyclopropyl-1-(3-{2-fluoro-3-[2-(3,3,3-trifluoropropyl)piperidine-1-carbonyl]phenyl}phenyl)-1H-pyrazole-4-carboxylic Acid] were, in that order, 0.01 to 0.1 µM and 0.1 to 1 µM.
